From patent US11912723B2, “KRAS modulators and uses thereof” (Quanta Therapeutics, Inc., priority 2022, dated 2024) come the findings set out here.

The target of one assay is T1, KRAS G12V/RAF1 (Homo sapiens, UniProt P01116, G12V).
T1 construct: KRAS (1-169) proteins were expressed in E. coli at 18° C; His6-MBP (N, cleaved yes); made in house; host or cells: E. coli
As to the kind of experiment: Protein-protein interaction (PPI) HTRF assay KRAS G12V/RAF1. To be noted: KRASG12V/RAF1. Type of assay: binding. Here is the method: (§1) Biotinylated KRAS wt and KRAS G12DNV proteins were expressed and purified in conditions similar to those previously reported (Tran, et al., 2021) (Zhang, et al., 2020). Briefly, KRAS (1-169) proteins were expressed in E. coli at 18° C. with an upstream TEV cleavage site (ENLFYQS) followed an Avi tag sequence ([…]). KIRAS expression constructs contained both a His6 and maltose-binding protein (MBP) tags at the N-terminus for Ni-NTA column purification prior to overnight TEV cleavage and MBP column purification. The avi-tagged NRAS expression construct contained both a His6 tag and SUMO cleavage sige at the N-terminus for Ni-NTA column purification followed by His-ULP1 digestion overnight. All avi-tagged RAS proteins were dialyzed into buffer containing ATP, biotin, and BirA followed by purification over a second Ni-NTA column and then run over a size exclusion HiLoad™ 26/600 Superdex™ column in 20 mM HEPES, pH 7.5, 300 mM NaCl, 5 mM MgCl2, and 1 mM TCEP. Fractions containing the protein of interest were pooled, concentrated, and confirmed by intact mass spectrometry. To prepare ‘GTP’ loaded KRAS and NRAS, biotinylated KRAS or NRAS was nucleotide exchanged from GDP-bound protein to GppNHp-bound (Jena Biosciences, NU-401-50) protein in the presence of alkaline phosphatase and excess GppNHp as previously described and the resulting nucleotide content was confirmed by HPLC reverse phase analytical chromatography (Donohue, et al., 2019) (Tran, et al., 2021).
(§2) His-tagged RAF1 (52-131) was similarly expressed in E. coli at 18° C. overnight with an upstream TEV cleavage site. His-tagged RAF1 expression construct contained both a His6 and MBP tags at the N-terminus for Ni-NTA column purification followed by MBP-tagged TEV digestion overnight. RAF1 protein samples were further purified over a MBP column followed by a Ni-NTA column and a second MBP column. The fractions containing the protein of interest were pooled, concentrated, and further purified over a HiLoad™ 16/600 Superdex™ 75 pg size exclusion column into 20 mM HEPES, pH8.0, 200 mM NaCl, 5 mM TCEP.
(§3) When RAS proteins are in the active GTP-bound conformation, they bind the effector protein RAF1 at the N-terminus Ras-binding domain (RBD, residues 52-131) (Tran, et al., 2021). Homogenous time resolved fluorescence (HTRF) was used to monitor the interaction between wt or mutant KRAS and RAF1 or wt NRAS and RAFT. Compounds were assayed in the presence of KRAS G12D/V and RAF1 versus wt KRAS to assess activity against mutant and w.t. KRAS. Similarly, compounds were then assayed in the presence of w.t. NRAS and RAF1 to assess RAS isoform selectivity. In all assay formats, His-tagged RAF1 protein was incubated with the HTRF donor, anti-6His Tb Cryptate gold (Cisbio 61DB10RDF), and biotinylated RAS proteins were incubated with the HTRF acceptor, streptavidin-d2 (CisBio 610SADLA). The intensity of the fluorescence signal emitted is proportional to binding between the two proteins. The donor solution was prepared by mixing 16 nM His-tagged RAF1 in protein dilution buffer with 1:100 anti-6His Tb cryptate in PPI-Terbium detection buffer. 16 nM biotinylated RAS protein was diluted into protein dilution buffer (50 mM Tris-HCl pH 7.5, 150 mM NaCl, 0.1 mM MgCl2, 1 mM TCEP, 0.005% Tween20) and mixed with 1:2000 Streptavidin-d2 diluted in PPI-Terbium detection buffer (CisBio 61DB10RDF). 50× compound in DMSO was mixed with 16 nM KRAS-acceptor solution and incubated for 30 minutes at room temperature. After compound pre-incubation with KRAS, the RAF1 donor solution was added to the KRAS-acceptor solution and incubated for 1 hour at room temperature. The fluorescence signal emitted was monitored at 665 nm and 615 nm using an Envision multimode plate reader. The HTRF ratio (665/615) was calculated and normalized to 0% inhibition in the absence of compound and 100% inhibition in the presence of untagged RAF1 protein. […]
On the technique in general: In TR-FRET formats the signal depends on donor and acceptor labels being close together.

Another assay addresses T2, wtNRAS/RAF1 (Homo sapiens, UniProt P01111).
T2 construct: (1-169); His6-SUMO (N, cleaved yes); made in house; host or cells: E. coli (printed for the KRAS and RAF1 constructs; not explicitly for NRAS)
As to the kind of experiment: Protein-protein interaction (PPI) HTRF assay w.t.NRAS/RAF1. It counts as binding. The protocol:
as §1, §2, §3

Assay [1] deals with T3, GST-tagged KRAS G12D (2-169) (Homo sapiens, UniProt P01116, G12D).
T3 construct: GST-tagged KRAS^G12D (2-169, Reaction Biology, MSC-11-539); purchased Reaction Biology MSC-11-539 (KRAS G12D); MSC-11-502 (SOS1cat)
T3 sequence (P01116 2-169 isoform P01116-2 G12D): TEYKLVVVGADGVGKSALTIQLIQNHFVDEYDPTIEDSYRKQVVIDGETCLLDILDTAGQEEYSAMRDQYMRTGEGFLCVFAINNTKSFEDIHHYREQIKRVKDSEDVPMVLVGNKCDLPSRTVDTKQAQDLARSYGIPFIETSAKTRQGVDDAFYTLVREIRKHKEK
As to the kind of experiment: Nucleotide exchange assay (NEA), HTRF of SOS-mediated GTP-DY-647P1 binding. It counts as biochemical. To be noted: 5 nM GST-KRAS G12D, 20 nM SOScat, 150 nM GTP; compound 1 h at RT. Put shortly:
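After 1 h RT preincubation of compound with KRAS, SOS1cat (20 nM final) and fluorescent GTP analog (150 nM) were added to 5 nM KRAS; HTRF (anti-GST Tb donor) followed at RT for up to 90 min. % inhibition relative to DMSO and no-SOS1 blank, 4-parameter curve fit.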

The structures appear in SMILES notation. Where only a bound is given, the exact number is not on record here.

T1 sequence (P01116 1-169 isoform P01116-2 G12V): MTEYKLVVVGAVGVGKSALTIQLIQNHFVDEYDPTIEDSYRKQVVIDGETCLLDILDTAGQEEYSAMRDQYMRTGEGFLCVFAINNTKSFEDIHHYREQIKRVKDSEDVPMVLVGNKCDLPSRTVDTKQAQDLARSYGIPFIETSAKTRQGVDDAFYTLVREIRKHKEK
T2 sequence (P01111 1-169): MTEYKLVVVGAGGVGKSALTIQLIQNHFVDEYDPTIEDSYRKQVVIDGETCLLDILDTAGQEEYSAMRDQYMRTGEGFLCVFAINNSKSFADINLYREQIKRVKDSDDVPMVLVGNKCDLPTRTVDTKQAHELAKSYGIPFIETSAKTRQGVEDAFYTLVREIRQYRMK

Broadly, the IC50 is the point on the concentration scale where inhibition reaches its midpoint. Read a high IC50 as weaker potency. For the compound `Cc1nnc(-c2nn3c(c2Cl)CN(c2nc(OC[C@@]45CCCN4C[C@H](F)C5)nc4c2CN(C)[C@@]2(CCCc5ccccc52)C4)CCC3)n1C` [Compound 90, (7S)-4-[3-chloro-2-(4,5-dimethyl-1,2,4-triazol-3-yl)-4,6,7,8-tetrahydropyrazolo[1,5-a][1,4]diazepin-5-yl]-2-[[(2R,8S)-2-fluoro-1,2,3,5,6,7-hexahydropyrrolizin-8-yl]methoxy]-6-methyl-spiro[5,8-dihydropyrido[4,3-d]pyrimidine-7,1′-tetralin]], the IC50 is 10 to 100 µM on KRAS G12V/RAF1, above 100 µM on wtNRAS/RAF1 and below 0.01 µM in assay [1].
For the compound `CN(C)C(=O)c1nn2c(c1Cl)CN(c1nc(OC[C@@]34CCCN3C[C@H](F)C4)nc3c1CN(C)[C@@]1(CCc4ccccc41)C3)CCC2` [Compound 53, 3-chloro-5-[(7S)-2-[[(2R,8S)-2-fluoro-1,2,3,5,6,7-hexahydropyrrolizin-8-yl]methoxy]-6-methyl-spiro[5,8-dihydropyrido[4,3-d]pyrimidine-7,1′-indane]-4-yl]-N,N-dimethyl-4,6,7,8-tetrahydropyrazolo[1,5-a][1,4]diazepine-2-carboxamide], the values for the IC50 (against KRAS G12V/RAF1; against wtNRAS/RAF1; in assay [1]) were 10 to 100 µM, above 100 µM and below 0.01 µM, respectively.
For `CN(C)C(=O)c1nn2c(c1Cl)CN(c1nc(OC[C@@]34CCCN3C[C@H](F)C4)nc3c1CN(C)[C@@]1(CCc4cccc(O)c41)C3)CCC2` [Compound 96, 3-chloro-5-[(7S)-2-[[(2R,8S)-2-fluoro-1,2,3,5,6,7-hexahydropyrrolizin-8-yl]methoxy]-7′-hydroxy-6-methyl-spiro[5,8-dihydropyrido[4,3-d]pyrimidine-7,1′-indane]-4-yl]-N,N-dimethyl-4,6,7,8-tetrahydropyrazolo[1,5-a][1,4]diazepine-2-carboxamide], in that order: 10 to 100 µM, above 100 µM and below 0.01 µM.
In the same order, the values of `C#Cc1c(C(=O)N(C)C)nn2c1CN(c1nc(OC[C@@]34CCCN3C[C@H](F)C4)nc3c1CN(C)[C@@]1(CCCc4ccccc41)C3)CCC2` [Compound 81, 3-ethynyl-5-[(7S)-2-[[(2R,8S)-2-fluoro-1,2,3,5,6,7-hexahydropyrrolizin-8-yl]methoxy]-6-methyl-spiro[5,8-dihydropyrido[4,3-d]pyrimidine-7,1′-tetralin]-4-yl]-N,N-dimethyl-4,6,7,8-tetrahydropyrazolo[1,5-a][1,4]diazepine-2-carboxamide] are 10 to 100 µM, above 100 µM and below 0.01 µM.
`CN(C)C(=O)c1nn2c(c1Cl)CN(c1nc(OC[C@@]34CCCN3C[C@H](F)C4)nc3c1CN(C)[C@@]1(CCCc4ccccc41)C3)CCC2` [Compound 64, 3-chloro-5-[(7S)-2-[[(2R,8S)-2-fluoro-1,2,3,5,6,7-hexahydropyrrolizin-8-yl]methoxy]-6-methyl-spiro[5,8-dihydropyrido[4,3-d]pyrimidine-7,1′-tetralin]-4-yl]-N,N-dimethyl-4,6,7,8-tetrahydropyrazolo[1,5-a][1,4]diazepine-2-carboxamide]: the values for the half-maximal inhibitory concentration (IC50) (against KRAS G12V/RAF1; on wtNRAS/RAF1; in assay [1]) were 10 to 100 µM, above 100 µM and below 0.01 µM, respectively.
Consider `OC1CCCN(c2nc(OC[C@@]34CCCN3C[C@H](F)C4)nc3c2COC2(CCc4c(Cl)cccc42)C3)CC1` (mixture of isomers) [Compound 6, 1-[4′-chloro-2-[[rac-(2R,8S)-2-fluoro-1,2,3,5,6,7-hexahydropyrrolizin-8-yl]methoxy]spiro[5,8-dihydropyrano[4,3-d]pyrimidine-7,1′-indane]-4-yl]azepan-4-ol], for which, in assay [1], the IC50 was 1 to 20 µM.
As for `OC1CCCN(c2nc(OC[C@@]34CCCN3C[C@H](F)C4)nc3c2COC2(CCCc4c(Cl)cccc42)C3)CC1` (stereo partly drawn) [Compound 15, 1-[5′-chloro-2-[[(2R,8S)-2-fluoro-1,2,3,5,6,7-hexahydropyrrolizin-8-yl]methoxy]spiro[5,8-dihydropyrano[4,3-d]pyrimidine-7,1′-tetralin]-4-yl]azepan-4-ol], the half-maximal inhibitory concentration (IC50) in assay [1] fell in the range of 1 to 20 µM.
`C[C@@]1(NC#N)CCCN(c2nc(OC[C@@]34CCCN3C[C@H](F)C4)nc3c2COC2(CCc4c(Cl)cccc42)C3)C1` (stereo partly drawn) [Compound 46A, [(3R)-1-[(7*)-4′-chloro-2-[[(2R,8S)-2-fluoro-1,2,3,5,6,7-hexahydropyrrolizin-8-yl]methoxy]spiro[5,8-dihydropyrano[4,3-d]pyrimidine-7,1′-indane]-4-yl]-3-methyl-3-piperidyl]cyanamide; 2,2,2-trifluoroacetic acid] gave an IC50 in assay [1] of 0.1 to 1 µM.
